48 compounds from PubChem BioAssay AID743022 (Sanford-Burnham Center for Chemical Genomics, 2013) can be followed below.

Several values for one entry are separate records, joined by “and”; a condition that tells them apart may be missing. Equal values may be shown once. Activity calls are given as the source filed them.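 Rule for the calls: active = compounds whose mean IC50 for blocking the worm GFP/RFP stress reporter is 5 µM or lower; inactive = the rest.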 Bounds are passed on as bounds.

Broadly, the IC50 is the midpoint of a concentration-inhibition curve.

The experiment concerns C. elegans VP596 gst-4::GFP/RFP ratio, acrylamide-induced, 24 h. Description: analog inhibition of acrylamide-induced gst-4::GFP reporter, SAR follow-up, SKN-1 inhibitor project, whole organism, GFP/RFP fluorescence ratio, round 3 (AID 743022).
As for `Clc1cccc(-c2csc(-c3ccncc3)n2)c1`, the IC50 is 1.49 µM.

As for `Cc1cccc(-c2csc(-c3ccncc3)n2)c1`, the IC50 was 30.1 µM (inactive). As for `Cc1csc(-c2ccncc2)n1`, the IC50 was > 64 µM (inactive). Consider `Clc1ccc(-c2csc(C3CCNCC3)n2)cc1`, for which the IC50 is > 64 µM (inactive).

`COc1ccc(-c2csc(C3CCNCC3)n2)cc1`: the IC50 is > 64 µM (inactive).

Take `c1ccc(-c2csc(C3CCNCC3)n2)cc1`: the IC50 was > 64 µM (inactive). `N#Cc1ccc(-c2csc(-c3ccncc3)n2)cc1`: the IC50 is 13.5 µM (inactive). Consider `Cc1sc(-c2ccncc2)nc1-c1ccccc1`, for which the IC50 is 11.3 µM (inactive). In the case of `CCCc1cc(-c2nc(-c3ccc(C)cc3)cs2)ccn1`, the IC50 was 34.1 µM (inactive).

Turning to `Clc1ccc(-c2csc(-c3ccccn3)n2)cc1`, the IC50 was 1.59 µM and 0.869 µM. The same measure for `Cc1sc(-c2ccncc2)nc1-c1ccc(F)cc1`: 4.77 µM; for `Cc1ccc(-c2csc(-c3ccccc3)n2)cc1`: > 64 µM (inactive); for `Cc1ccc(-c2csc(-c3cccnc3)n2)cc1`: > 64 µM (inactive).

For `Fc1ccc(-c2csc(-c3ccncc3)n2)cc1`, the half-maximal inhibitory concentration (IC50) is 2.53 µM. On to `Fc1ccc(-c2csc(C3CCNCC3)n2)cc1`, for which the IC50 was > 64 µM (inactive).

Turning to `c1ccc(-c2nc(-c3cccnc3)cs2)cc1`, the IC50 was > 64 µM (inactive). In the case of `Clc1ccc(-c2csc(-c3ccncc3)n2)c(Cl)c1`, the concentration for half-maximal inhibition (IC50) is 1.1 µM. In the case of `COc1ccc(-c2csc(-c3ccncc3)n2)cc1`, the IC50 is 16.6 µM (inactive). For the compound `COc1ccc(-c2csc(-c3ccccn3)n2)cc1`, the IC50 is 17.9 µM (inactive). With `Cc1sc(-c2ccncc2)nc1-c1ccc(Cl)cc1`, the IC50 was 3.24 µM. As to `Cc1ccc(-c2csc(-c3ccccn3)n2)cc1`, the IC50 is 27.4 µM (inactive). Take `Clc1ccc(-c2csc(-c3ccncc3)n2)cc1`: the 50% inhibitory concentration (IC50) is 1.34 µM and 1.92 µM. For `c1ccc(-c2csc(-c3ccncc3)n2)cc1`, the IC50 is 2.5 µM. For the compound `c1ccc(-c2csc(-c3ccccn3)n2)cc1`, the IC50 is 29 µM (inactive). The figure for `COc1ccc(-c2csc(-c3ccccc3)n2)cc1` is 28.8 µM (inactive). With `Clc1ccc(-c2csc(-c3cccnc3)n2)cc1`, the IC50 is 1.67 µM and 0.379 µM.

As to `Clc1ccccc1-c1csc(-c2ccncc2)n1`, the IC50 is 3.63 µM. For the compound `Cc1sc(C2CCNCC2)nc1-c1ccccc1`, the IC50 is > 64 µM (inactive). For the compound `COc1ccccc1-c1csc(-c2ccncc2)n1`, the IC50 is > 64 µM (inactive).

As to `Cc1ccc(-c2csc(C3CCNCC3)n2)cc1`, the IC50 was > 64 µM (inactive). Take `CCCc1cc(-c2nc(-c3ccc(NS(C)(=O)=O)cc3)cs2)ccn1`: the IC50 was > 64 µM (inactive). On to `COc1ccc(-c2nc(-c3ccncc3)sc2C)cc1`, for which the IC50 was 51.2 µM (inactive).

Take `Fc1ccc(-c2csc(-c3cccnc3)n2)cc1`: the IC50 is 6.94 µM (inactive). For `Cc1ccccc1-c1csc(-c2ccncc2)n1`, the IC50 is 14.6 µM (inactive).

Take `CC(C)(C)c1csc(-c2ccncc2)n1`: the IC50 is > 64 µM (inactive). For the compound `Cc1ccc(-c2nc(-c3ccncc3)sc2C)cc1`, the IC50 is > 64 µM (inactive).

As for `Clc1ccc(-c2csc(-c3ccccc3)n2)cc1`, the IC50 is 2.1 µM. Regarding `c1cc(-c2nc(-c3nccs3)cs2)ccn1`, the IC50 was 21.5 µM (inactive). For the compound `FC(F)(F)c1ccc(-c2csc(-c3ccncc3)n2)cc1`, the IC50 is 3.9 µM. For `Fc1ccc(-c2csc(-c3ccccn3)n2)cc1`, the IC50 was 3.18 µM. The figure for `Fc1ccc(-c2csc(-c3ccccc3)n2)cc1` is 23.3 µM (inactive); for `COc1ccc(-c2csc(-c3cccnc3)n2)cc1` it is 13.4 µM (inactive). For `c1cc(-c2nc(C3CC3)cs2)ccn1`, the IC50 is > 64 µM (inactive). The same measure for `Clc1ccc(-c2csc(-c3ccncc3)n2)cc1Cl`: 0.276 µM and 0.884 µM.

In the case of `Cc1ccc(-c2csc(-c3ccncc3)n2)cc1`, the IC50 was 18.2 µM (inactive). For the compound `COc1cccc(-c2csc(-c3ccncc3)n2)c1`, the IC50 was 26.2 µM (inactive). On to `COC(=O)c1ccc(-c2csc(-c3ccncc3)n2)cc1`, for which the IC50 is > 64 µM (inactive). Take `c1ccc(-c2csc(-c3cccnc3)n2)cc1`: the IC50 was 17.7 µM (inactive).
